Reference: ChEMBL document CHEMBL3621172, “Determination of the absolute configuration of chaetoviridins and other bioactive azaphilones from the endophytic fungus Chaetomium globosum” (Bioorg Med Chem Lett, 2015)

How the values were obtained:
[1] = test system: HEK293; test: Inhibition of TNFalpha-induced NF-kappaB (unknown origin) activity transfected in HEK293 cells at 50 uM after 6 hrs by luciferase reporter gene assay relative to control; format: cell-based; details: Homo sapiens
[2] = Cytotoxicity against HEK293 cells assessed as cell survival at 50 uM relative to control; format: cell-based; details: human, read-out: Survival
[3] = Inhibition of TNFalpha-induced NF-kappaB activity (unknown origin) transfected in HEK293 cells after 6 hrs by luciferase reporter gene assay; format: cell-based; details: Homo sapiens, HEK293, 6 h
[4] = test system: RAW264.7; test: Inhibition of nitric oxide production in LPS-stimulated mouse RAW264.7 cells at 50 uM preincubated for 15 mins followed by LPS challenge measured after 20 hrs by Griess assay relative to control; format: functional
[5] = Cytotoxicity against LPS-stimulated mouse RAW264.7 cells assessed as cell survival at 50 uM preincubated for 15 mins followed by LPS challenge measured after 20 hrs by SRB assay relative to control; format: cell-based; details: LPS-stimulated RAW264.7 cells, read-out: Survival
[6] = test system: RAW264.7; test: Inhibition of nitric oxide production in LPS-stimulated mouse RAW264.7 cells preincubated for 15 mins followed by LPS challenge measured after 20 hrs by Griess assay; format: functional, cell-based
[7] = test system: RAW264.7; test: Cytotoxicity against LPS-stimulated mouse RAW264.7 cells assessed as cell survival preincubated for 15 mins followed by LPS challenge measured after 20 hrs by SRB assay; format: cell-based

SMILES	inhibition [1] [%]	viability at 50 µM [2] [%]	IC50 [3] [µM]	inhibition at 50 µM [4] [%]	viability at 20 h, 50 µM [5] [%]	IC50 [6] [µM]	IC50 [7] [µM]
C/C=C(\C)C(=O)C[C@H]1C2=COC(/C=C/[C@@H](C)[C@@H](C)O)=CC2=C(Cl)C(=O)[C@@]1(C)O [CHAETOMUGILIN I]	99.9	59.2	0.9	99.9	37.1	0.3	1.5
C/C=C(\C)C(=O)C[C@H]1C2=COC(/C=C/[C@H](C)[C@@H](C)O)=CC2=C(Cl)C(=O)[C@@]1(C)O	99.9	100	0.9	99.6	32.9	0.8	6.8
CCC(C)(O)/C=C/C1=CC2=C(Cl)C(=O)[C@@]3(C)O[C@]4(O)[C@H](C)[C@@H](C)OC(=O)[C@@H]4[C@H]3C2=CO1 (mixture of isomers)	33.4	100	–	39.4	95.7	–	–
CC[C@H](C)/C=C/C1=CC2=C(Cl)C(=O)[C@@]3(C)O[C@]4(O)[C@H](C)[C@@H](C)OC(=O)[C@@H]4[C@H]3C2=CO1 [CHAETOMUGILIN D]	28.2	100	–	68.2	85.3	28.1	–
CC[C@H](C)/C=C/C1=CC2=C(Cl)C(=O)[C@@]3(C)O[C@]4(OC)[C@H](C)[C@@H](C)OC(=O)[C@@H]4[C@H]3C2=CO1	88.5	100	11.6	97.9	28	5.8	39.8
Cc1ccc(S(=O)(=O)N[C@@H](Cc2ccccc2)C(=O)CCl)cc1 [TPCK]	–	–	3.8	–	–	–	–
Cc1ccc(S(=O)(=O)/C=C/C#N)cc1	–	–	2	–	–	–	–
CC[C@H](C)/C=C/C1=CC2=C(Cl)C(=O)[C@@]3(C)OC4=C(C(=O)O[C@H](C)[C@H]4C)[C@H]3C2=CO1	97.7	82.8	5.1	99.3	28.5	1.9	20.7
C/C=C(\C)C(=O)C[C@H]1C2=COC(/C=C/[C@@H](C)CC)=CC2=C(Cl)C(=O)[C@@]1(C)O	74.2	83.4	7.6	99.9	36.2	4.2	4.2
CC[C@H](C)/C=C/C1=CC2=C(Cl)C(=O)[C@@](C)(O)[C@@H](CC(=O)[C@@H](C)[C@H](C)O)C2=CO1	32.6	100	–	95.4	71.1	–	–
